Assays:
Assay type in all cases: functional
Details in all cases: read-out: ED50 (the source's name)
[1] = tested on: KB; assay: Cytotoxicity against human KB cells
[2] = tested on: HCT-15; assay: Cytotoxicity against human HCT15 cells
[3] = tested on: OVCAR; assay: Cytotoxicity against human OVCAR cells
[4] = Cytotoxicity against human SQC1 cells

Measured: EC50

COC(=O)[C@@]12CC[C@@]3(C)[C@@H]4C=CC(=O)OC[C@]4([C@@H](C)O)C[C@@H](O)[C@@H]3[C@@]1(C)CC[C@@]1(C)CCC(C)=C[C@]12O [GALPHIMINE C]
> 4 µg/mL: all assays above

COC(=O)[C@@]12CC[C@@]3(C)[C@@H]4C=CC(=O)OC[C@]4([C@H](C)O)[C@@H](O)[C@@H](OC(C)=O)[C@@H]3[C@@]1(C)CC[C@@]1(C)CC=C(C)C[C@]12O [GALPHIMINE D]
> 4 µg/mL: all assays above

COC(=O)[C@@]12CC[C@@]3(C)[C@@H]4C=CC(=O)OC[C@]4([C@@H](C)O)[C@@H](OC(C)=O)[C@@H](O)[C@@H]3[C@@]1(C)CC[C@@]1(C)CC=C(C)C[C@]12O [GALPHIMINE E]
> 4 µg/mL: all assays above

C=C1CC[C@]2(C)CC[C@]3(C)[C@H]4[C@H](O)C[C@@]5([C@@H](C)O)COC(=O)C=C[C@H]5[C@]4(C)CC[C@@]3(C(=O)OC)[C@]2(O)C1 [GALPHIMINE F]
> 4 µg/mL: all assays above

COC(=O)[C@@]12CC[C@@]3(C)[C@@H]4C=CC(=O)OC[C@]4([C@@H](C)O)C[C@@H](O)[C@@H]3[C@@]1(C)CC[C@@]1(C)CC=C(C)C[C@]12O [GALPHIMINE B]
> 4 µg/mL: all assays above

C=C1CC[C@]2(C)CC[C@]3(C)[C@H]4[C@H](OC(C)=O)[C@H](O)[C@@]5([C@H](C)O)COC(=O)C=C[C@H]5[C@]4(C)CC[C@@]3(C(=O)OC)[C@]2(O)C1 [GALPHIMINE I]
> 4 µg/mL: all assays above

C=C1CC[C@]2(C)CC[C@]3(C)[C@H]4[C@H](O)[C@H](OC(C)=O)[C@@]5([C@@H](C)O)COC(=O)C=C[C@H]5[C@]4(C)CC[C@@]3(C(=O)OC)[C@]2(O)C1 [GALPHIMINE G]
> 4 µg/mL: all assays above

COC(=O)[C@@]12CC[C@@]3(C)[C@@H]4C=CC(=O)OC[C@]4([C@@H](C)O)[C@@H](O)[C@@H](O)[C@@H]3[C@@]1(C)CC[C@@]1(C)CC=C(C)C[C@]12O [GALPHIMINE A]
> 4 µg/mL: all assays above

C=C1CC[C@]2(C)CC[C@]3(C)[C@H]4[C@H](O)[C@H](O)[C@@]5([C@H](C)O)COC(=O)C=C[C@H]5[C@]4(C)CC[C@@]3(C(=O)OC)[C@]2(O)C1 [GALPHIMINE H]
> 4 µg/mL: all assays above
